Columns and labels:
[1] = tested on: rabbit serum obtained by immunizing a rabbit with the SARS-CoV strain Frankfurt 1; format: binding; set-up: Binding of a rabbit serum to linear peptides / Binding of a rabbit serum to looped peptides / Rabbit serum linear peptides / Rabbit serum looped peptides / Binding of a rabbit serum to linear peptides of protein N of SARS-CoV Urbani (Rabbit serum linear peptides) / Binding of a rabbit serum to looped/cyclic peptides of protein N of SARS-CoV Urbani (Rabbit serum looped peptides): unit not given here
[2] = tested on: control sera (pooled serum of ten healthy LUMC hospital workers; commercial negative donor pooled serum from the Dutch bloodbank); format: binding, human; set-up: Binding of Control serum LUMC to linear peptides / Binding of Control serum Blood-bank to linear peptides / Binding of Control serum LUMC to looped peptides / Binding of Control Serum Blood-Bank to Looped peptides / Binding of Control serum LUMC to linear peptides of the protein M of SARS-CoV Urbani / Binding of Control serum Blood-bank to linear peptides of the protein M of SARS-CoV Urbani / Binding of Control serum LUMC to looped peptides of the protein M of SARS-CoV Urbani / Binding of Control Serum Blood-Bank to Looped peptides of the protein M of SARS-CoV Urbani: unit not given here
[3] = tested on: recombinant human anti-SARS-CoV antibody 03-018; format: binding; set-up: Binding of antibody 03-018 to linear peptides of the N protein of SARS-CoV Urbani / Binding of antibody 03-018 to looped/cyclic peptides of the N protein of SARS-CoV Urbani: unit not given here
[4] = tested on: antibodies in sera from SARS patients (sera 1a, 1b, 2, 6, 37, 62, London, SARS-yellow, SARS-green); format: binding, human; set-up: Binding of serum 6 to linear peptides of protein X1 of SARS-CoV Urbani / Binding of serum 37 to linear peptides of protein X1 of SARS-CoV Urbani / Binding of serum 6 to looped/cyclic peptide (PEPSCAN-ELISA) / Binding of serum 37 to looped/cyclic peptide (PEPSCAN-ELISA) / Binding of serum 37 to looped/cyclic peptides of protein X1 of SARS-CoV Urbani / Binding of serum 6 to linear peptides of protein X2 / Binding of serum 37 to linear peptides of protein X2 / Binding of serum 37 to looped/cyclic peptides of protein X2 of SARS-CoV Urbani / Binding of serum 6 to linear peptides of protein M of SARS-CoV Urbani / Binding of serum 37 to linear peptides of protein M of SARS-CoV Urbani / Binding of serum 6 to looped/cyclic peptides of protein M of SARS-CoV Urbani / Binding of serum 37 to looped/cyclic peptides of protein M of SARS-CoV Urbani / Binding of serum 6 to linear peptides of protein X3 of SARS-CoV Urbani / Binding of serum 37 to linear peptides of protein X3 of SARS-CoV Urbani / Binding of serum 37 to looped/cyclic peptides of protein X3 of SARS-CoV Urbani / Binding of serum 6 to linear peptides of protein X4 of SARS-CoV Urbani / Binding of serum 37 to linear peptides of protein X4 of SARS-CoV Urbani / Binding of serum 37 to looped/cyclic peptides of protein X4 of SARS-CoV Urbani / Binding of serum 6 to linear peptides of protein X5 of SARS-CoV Urbani / Binding of serum 37 to linear peptides of protein X5 of SARS-CoV Urbani / Binding of serum 37 to looped/cyclic peptides of protein X5 of SARS-CoV Urbani / Binding of serum 6 to linear peptides of protein N of SARS-CoV Urbani / Binding of serum 37 to linear peptides of protein N of SARS-CoV Urbani / Binding of serum 6 to linear peptide (PEPSCAN-ELISA) / Binding of serum 1a to looped/cyclic peptides of protein N of SARS-CoV Urbani / Binding of serum 1b to looped/cyclic peptides of protein N of SARS-CoV Urbani / Binding of serum 2 to looped/cyclic peptides of protein N of SARS-CoV Urbani / Binding of serum 6 to looped/cyclic peptides of protein N of SARS-CoV Urbani / Binding of serum 37 to looped/cyclic peptides of protein N of SARS-CoV Urbani / Binding of serum 62 to looped/cyclic peptides of protein N of SARS-CoV Urbani / Binding of serum London to looped/cyclic peptides of protein N of SARS-CoV Urbani / Binding of serum SARS-green to looped/cyclic peptides of protein N of SARS-CoV Urbani: unit not given here

Row | Sequence | Binding of a rabbit serum to linear peptides of protein N of SARS-CoV Urbani (Rabbit serum linear peptides) [1] | Binding of a rabbit serum to looped/cyclic peptides of protein N of SARS-CoV Urbani (Rabbit serum looped peptides) [1] | Binding of antibody 03-018 to linear peptides of the N protein of SARS-CoV Urbani [3] | Binding of antibody 03-018 to looped/cyclic peptides of the N protein of SARS-CoV Urbani [3] | Binding of serum 1a to linear peptides of protein N of SARS-CoV Urbani [4] | Binding of serum 1a to looped/cyclic peptides of protein N of SARS-CoV Urbani [4] | Binding of serum 1b to linear peptides of protein N of SARS-CoV Urbani [4] | Binding of serum 1b to looped/cyclic peptides of protein N of SARS-CoV Urbani [4] | Binding of serum 2 to linear peptides of protein N of SARS-CoV Urbani [4] | Binding of serum 2 to looped/cyclic peptides of protein N of SARS-CoV Urbani [4] | Binding of serum 6 to linear peptides of protein N of SARS-CoV Urbani [4] | Binding of serum 6 to looped/cyclic peptides of protein N of SARS-CoV Urbani [4] | Binding of serum 37 to linear peptides of protein N of SARS-CoV Urbani [4] | Binding of serum 37 to looped/cyclic peptides of protein N of SARS-CoV Urbani [4] | Binding of serum 62 to linear peptides of protein N of SARS-CoV Urbani [4] | Binding of serum 62 to looped/cyclic peptides of protein N of SARS-CoV Urbani [4] | Binding of serum London to linear peptides of protein N of SARS-CoV Urbani [4] | Binding of serum London to looped/cyclic peptides of protein N of SARS-CoV Urbani [4] | Binding of serum SARS-green to linear peptides of protein N of SARS-CoV Urbani [4] | Binding of serum SARS-green to looped/cyclic peptides of protein N of SARS-CoV Urbani [4] | further results
1 | MSDNGPQSNQRSAPR | 0.1 | 0.4 | 0.1 | 0.3 | 0.2 | 0.2 | 0.1 | 0.1 | 0.2 | 0.4 | 0.2 | 0.3 | 0.6 | 0.4 | 0.6 | 0.4 | 0.5 | 0.4 | 0.3 | 0.4 | Binding of Control Serum Blood-Bank to Looped peptides [2]: 0.6; Binding of Control serum Blood-bank to linear peptides [2]: 0.6; Binding of Control serum LUMC to linear peptides [2]: 0.5; Binding of Control serum LUMC to looped peptides [2]: 0.5; Binding of serum SARS-yellow to linear peptides of protein N of SARS-CoV Urbani [4]: 0.5; Binding of serum SARS-yellow to looped/cyclic peptides of protein N of SARS-CoV Urbani [4]: 0.1
2 | HWPQIAQFAPSASAF | 0.1 | 0.7 | 0.1 | 0.2 | 0.3 | 0.5 | 0.2 | 0.3 | 0.2 | 0.5 | 0.2 | 0.4 | 0.8 | 0.8 | 0.7 | 1.0 | 0.6 | 0.6 | 0.4 | 0.6 | Control Serum Blood-Bank Looped peptides [2]: 0.8; Control serum Blood-bank linear peptides [2]: 0.8; Control serum LUMC linear peptides [2]: 0.7; Control serum LUMC looped peptides [2]: 0.8; Binding of serum SARS-yellow to linear peptides of protein N of SARS-CoV Urbani [4]: 0.8; Binding of serum SARS-yellow to looped/cyclic peptides of protein N of SARS-CoV Urbani [4]: 0.6
3 | TYHGAIKLDDKDPQF | 0.1 | 0.2 | 0.1 | 0.1 | 0.3 | 0.2 | 0.1 | 0.1 | 0.1 | 0.2 | 0.2 | 0.1 | 0.8 | 0.3 | 1.1 | 0.2 | 0.6 | 0.3 | 0.4 | 0.0 | Control Serum Blood-Bank Looped peptides [2]: 0.4; Control serum Blood-bank linear peptides [2]: 0.8; Control serum LUMC linear peptides [2]: 0.7; Control serum LUMC looped peptides [2]: 0.4; Binding of serum SARS-yellow to linear peptides of protein N of SARS-CoV Urbani [4]: 0.7; Binding of serum SARS-yellow to looped/cyclic peptides of protein N of SARS-CoV Urbani [4]: 0.2
4 | TPKDHIGTRNPNNNA | 0.1 | 0.4 | 0.1 | 0.2 | 0.3 | 0.3 | 0.1 | 0.3 | 0.3 | 0.3 | 0.2 | 0.2 | 0.9 | 0.5 | 0.8 | 0.3 | 0.5 | 0.3 | 0.4 | 0.3 | Binding of Control Serum Blood-Bank to Looped peptides [2]: 0.5; Binding of Control serum Blood-bank to linear peptides [2]: 0.9; Binding of Control serum LUMC to linear peptides [2]: 0.9; Binding of Control serum LUMC to looped peptides [2]: 0.6; Binding of serum SARS-yellow to linear peptides of protein N of SARS-CoV Urbani [4]: 0.7; Binding of serum SARS-yellow to looped/cyclic peptides of protein N of SARS-CoV Urbani [4]: 0.3

— US20070128217A1 (priority 2003, published 2007)
